# Assay results reported in patent publication US20190133997A1, “ARTEMISININ ANALOG, AND USE, METHOD, AND COMPOSITION FOR PROMOTING LIPID CATABOLISM AND IMPROVING SUGAR METABOLISM” (FUDAN UNIVERSITY, priority 2016, published 2019).
# Columns and labels:
# SVF primary preadipocyte = assay: Artemether on differentiation of Stromal Vascular Fraction (SVF) primary preadipocytes (morphology, Western blot); assay type: cell-based, mice
# Procedure: Inguinal fat of male mice was cut into pieces, treated with collagenase at 37° C. for 15 min, and centrifuged at 250 rpm for 10 min. The pellet was resuspended in F12/DMEM medium. 2.5×10^5 cells were taken and seeded in a 3.5 cm culture dish, which was pretreated with 1 ml polylysine for 30 min. Two days after cell contact inhibition (defined as Day 0 of differentiation), induction was performed according to adipocyte differentiation protocol as follows: two days after induction with F12/DMEM comprising 10% fetal bovine serum, 0.5 mMol/L Mix, 1 μMol/L Dex, 5 μg/ml insulin, and 1 μMol/L rosiglitazone; the culture was continued for 2 days with DMEM/F12 comprising 10% fetal bovine serum, […] insulin and 1 μMol/L rosiglitazone; thereafter, DMEM/F12 medium containing 10% fetal bovine serum was replaced every other day until the cells differentiated to Day 8.
# On Day 0 of differentiation, SVF was treated with different concentrations of artemether ([…]), then fresh medium was replaced, and the corresponding concentration of artemether was added until the cells differentiated to mature.
# The method for extracting total SVF protein was the same as 2.4.3, Western blot method and catalog number of antibody was the same as 2.4.4.
# [1] = tested on: obese mice induced by high-fat diet; assay: Subcutaneous artemether, glucose and insulin tolerance tests in high-fat diet obese mice; assay type: in vivo, Male C57BL/6J mice; conditions: subcutaneous injection, eight weeks
# Procedure: (§1) The mice were breeded in the SPF animal laboratory of the Laboratory Animal Center of Fudan University at a room temperature of 21° C.-23° C. with a 12-hour light/dark cycle. […] When the mice were grown to 8-week old, they were randomly divided into a control group and an administration group, with 8 mice in each group. While the mice were fed with a high-fat diet, artemether was injected subcutaneously. Artemether was diluted in PBS at a concentration of […], and injected into bilateral inguinal region, with 200 μl being injected into each side. Mice in control group were injected with the same volume of PBS. Administration was continued for eight weeks.
# The mice were fasted for 12-16 hours and injected intraperitoneally with glucose injection at a dose of […]. At 0 min, 30 min, 60 min, 90 min, and 120 min after injection, blood was collected from the tail vein, and blood glucose was measured with OneTouch ExtraEasy glucometer and OneTouch ExtraEasy blood glucose test strips and the results were recorded.
# Insulin was injected intraperitoneally at a dose of 0.75 U/kg weight. At 0 min, 15 min, 30 min, 45 min and 60 min after injection, blood was collected from the tail vein, and blood glucose was measured.
# high fat-fed mice = assay: Subcutaneous artemether, fatty liver induced by high-fat diet (HE staining); assay type: in vivo, Male C57BL/6J mice; conditions: subcutaneous injection, eight weeks, control: obvious lipid accumulation
# Procedure: as §1, with “weeks. The mice were sacrificed by cervical dislocation, and liver tissues of mice were removed. The histological analysis including tissue fixation, paraffin embedding, sectioning and HE staining was commissioned by Shanghai Saige Biotech Co., Ltd.” for “weeks.”
# ob/ob mice [2] = assay: Intraperitoneal artemether, weight gain in diabetic ob/ob mice; assay type: in vivo, Male ob/ob mice; conditions: intraperitoneal 20 mg/kg twice a week, eight weeks
# Procedure: The ob/ob mice were breeded in the SPF animal laboratory of the Laboratory Animal Center of Fudan University at a room temperature of 21° C.-23° C. with a 12-hour light/dark cycle. When the mice were grown to 4-week old, they were randomly divided into a control group and an administration group, with 4 mice in each group. The administration group was injected intraperitoneally with artemether. Artemether for intraperitoneal injection was stored at 4° C. in coconut oil at a storage concentration of 6 mg/ml (20 mMol/L), and protected from light. Ob/ob mice in administration group were injected with artemether at a dose of 20 mg/kg weight. Administration was twice a week for eight weeks, and the weight of the mice was recorded weekly.
# ob/ob mice [3] = assay: Intraperitoneal artemether, fatty liver in diabetic ob/ob mice; assay type: in vivo, Male ob/ob mice; conditions: intraperitoneal 20 mg/kg twice a week, eight weeks
# Procedure: Ob/ob mice were breeded in the SPF animal laboratory of the Laboratory Animal Center of Fudan University at a room temperature of 21° C.-23° C. with a 12-hour light/dark cycle. When the mice were grown to 4-week old, they were randomly divided into a control group and an administration group, with 4 mice in each group. Mice in administration group were injected intraperitoneally with artemether. Artemether for intraperitoneal injection was stored at 4° C. in coconut oil at a storage concentration of 6 mg/ml (20 mMol/L), and protected from light. Ob/ob mice in administration group were injected with artemether at a dose of 20 mg/kg weight. Administration was twice a week for eight weeks. The mice were sacrificed by cervical dislocation, and liver tissues of mice were removed, fixed and paraffin embedded. The histological analysis was commissioned by Shanghai Saige Biotech Co., Ltd.
# [4] = Intraperitoneal artemether, growth of healthy mice on normal diet; assay type: in vivo, Male C57BL/6J mice; conditions: intraperitoneal 20 mg/kg twice a week, eight weeks, vs control
# Procedure: The mice were breeded in the SPF animal laboratory of the Laboratory Animal Center of Fudan University at a room temperature of 21° C.-23° C. with a 12-hour light/dark cycle. When the mice were grown to 8-week old, they were randomly divided into a control group and an administration group, with 8 mice in each group. Mice in administration group were injected intraperitoneally with artemether. Artemether for intraperitoneal injection was stored at 4° C. in coconut oil at a storage concentration of 6 mg/ml (20 mMol/L), and protected from light. Mice in administration group were injected with artemether at a dose of 20 mg/kg weight. Mice in control group were injected with 100 μl coconut oil. Administration was twice a week for eight weeks and the weight of the mice was recorded weekly.
# [5] = SVF, artemether 5, 10, 15 Mol/L, Western Blot
compound,measurement,setting,value
CO[C@H]1O[C@@H]2O[C@@]3(C)CC[C@H]4[C@H](C)CC[C@@H]([C@H]1C)[C@@]24OO3 [artemether],expression level of PGC1α,SVF primary preadipocyte; [5],gradually increase with the increase of artemether concentration
same,expression level of PRDM16,SVF primary preadipocyte; [5],gradually increase with the increase of artemether concentration
same,expression level of UCP1,SVF primary preadipocyte; [5],gradually increase with the increase of artemether concentration
same,cell morphology of SVF primary preadipocyte,"SVF primary preadipocyte; artemether 5, 10, 15 Mol/L during differentiation, vs standard differentiated control cells, concentration-dependent tendency","smaller in size, with characteristics of multi-cavity small lipid droplets"
same,glucose tolerance,[1],significantly better than that of mice in control group
same,insulin tolerance,[1],significantly better than that of mice in control group
same,lipid in the liver (fatty liver),high fat-fed mice,only a small amount of lipid
same,weight gain of ob/ob mice,ob/ob mice [2],significantly slower than that of mice in control group
same,weight of ob/ob mice,ob/ob mice [2],"tended to be lower than that of mice in control group, but was not statistically different"
same,fatty liver of ob/ob mice (HE staining),ob/ob mice [3],significantly relieved
same,weight gain of healthy mice,[4],not significantly different
same,weight of healthy mice,[4],no difference
